Laboratory results as given in ChEMBL document CHEMBL1909046, “DrugMatrix in vitro pharmacology data”.

What was measured:
[1] = biological target: Protein phosphatase 3 catalytic subunit alpha (Homo sapiens, UniProt Q08209); design: species or system Escherichia coli;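 note: inhibition of calcineurin (PP2B) enzyme activity, measured with DiFMUP as the substrate; in other assays of this panel Not Active means under 50% inhibition at 10 µM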
[2] = biological target: Mitogen-activated protein kinase 1 (Homo sapiens, UniProt P28482); assay: DRUGMATRIX: Protein Serine/Threonine Kinase, ERK2 enzyme inhibition (substrate: Myelin Basic Protein); design: species or system Escherichia coli; details: Not Active = under 50% inhibition at 10 µM
D(4) dopamine receptor = biological target: T1, D(4) dopamine receptor (Homo sapiens, UniProt P21917); assay: DRUGMATRIX: Dopamine D4.2 radioligand binding (ligand: [3H] Spiperone); type: cell membranes, CHO-K1, Membrane; details: Not Active = under 50% inhibition at 10 µM
T1 sequence (P21917 whole entry): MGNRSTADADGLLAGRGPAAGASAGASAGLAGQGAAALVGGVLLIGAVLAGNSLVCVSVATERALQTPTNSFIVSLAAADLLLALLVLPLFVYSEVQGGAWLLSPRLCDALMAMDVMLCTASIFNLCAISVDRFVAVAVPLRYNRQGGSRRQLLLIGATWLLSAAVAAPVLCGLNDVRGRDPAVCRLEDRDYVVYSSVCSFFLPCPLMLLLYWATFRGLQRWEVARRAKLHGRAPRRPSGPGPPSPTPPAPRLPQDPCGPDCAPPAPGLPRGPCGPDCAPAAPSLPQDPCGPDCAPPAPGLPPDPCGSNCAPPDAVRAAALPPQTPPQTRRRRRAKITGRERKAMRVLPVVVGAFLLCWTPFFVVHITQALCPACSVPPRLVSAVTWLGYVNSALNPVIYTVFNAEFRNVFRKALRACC

[3] = biological target: T2, Neuropeptide Y receptor type 2 (Homo sapiens, UniProt P49146); type: cell membranes, Membrane; details: kan-ts; note: in other assays of this panel Not Active means under 50% inhibition at 10 µM
T2 sequence (P49146 whole entry): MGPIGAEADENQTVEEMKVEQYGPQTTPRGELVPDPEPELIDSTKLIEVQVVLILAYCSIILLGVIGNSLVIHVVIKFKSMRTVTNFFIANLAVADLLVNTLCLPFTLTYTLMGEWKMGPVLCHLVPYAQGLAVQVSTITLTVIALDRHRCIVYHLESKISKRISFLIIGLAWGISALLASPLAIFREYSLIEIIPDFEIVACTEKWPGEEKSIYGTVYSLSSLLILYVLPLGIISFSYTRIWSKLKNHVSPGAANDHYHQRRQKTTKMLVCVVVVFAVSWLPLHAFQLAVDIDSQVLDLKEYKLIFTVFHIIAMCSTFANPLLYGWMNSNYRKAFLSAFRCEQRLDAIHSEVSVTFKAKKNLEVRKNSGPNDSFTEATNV

[4] = biological target: C-C chemokine receptor type 5 (Homo sapiens, UniProt P51681); type: cell membranes, Membrane; details: hek293; note: in other assays of this panel Not Active means under 50% inhibition at 10 µM
Caspase-1 = biological target: T3, Caspase-1 (Homo sapiens, UniProt P29466); design: species or system Escherichia coli;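 note: Caspase-1 enzyme inhibition assay with a peptide substrate; in other assays of this panel Not Active means under 50% inhibition at 10 µM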
T3 sequence (P29466 whole entry): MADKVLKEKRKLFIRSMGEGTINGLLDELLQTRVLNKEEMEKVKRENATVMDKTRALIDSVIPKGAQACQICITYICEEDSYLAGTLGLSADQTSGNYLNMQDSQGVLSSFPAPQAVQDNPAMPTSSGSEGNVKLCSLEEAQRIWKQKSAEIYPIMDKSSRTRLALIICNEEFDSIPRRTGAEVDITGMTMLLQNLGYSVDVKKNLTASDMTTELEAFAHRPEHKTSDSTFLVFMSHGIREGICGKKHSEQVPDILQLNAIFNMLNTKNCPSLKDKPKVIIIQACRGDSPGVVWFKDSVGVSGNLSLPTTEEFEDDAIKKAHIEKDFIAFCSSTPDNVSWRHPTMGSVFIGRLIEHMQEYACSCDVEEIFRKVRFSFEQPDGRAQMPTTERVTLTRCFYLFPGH

[5] = biological target: Beta-2 adrenergic receptor (Homo sapiens, UniProt P07550); assay: DRUGMATRIX: Adrenergic beta2 radioligand binding (ligand: [3H] CGP-12177); type: cell membranes, CHO, Membrane; details: Not Active = under 50% inhibition at 10 µM
[6] = biological target: T4, Neuropeptide Y receptor type 1 (Homo sapiens, UniProt P25929); type: cell membranes, Membrane; details: sk-n-mc; note: in other assays of this panel Not Active means under 50% inhibition at 10 µM
T4 sequence (P25929 whole entry): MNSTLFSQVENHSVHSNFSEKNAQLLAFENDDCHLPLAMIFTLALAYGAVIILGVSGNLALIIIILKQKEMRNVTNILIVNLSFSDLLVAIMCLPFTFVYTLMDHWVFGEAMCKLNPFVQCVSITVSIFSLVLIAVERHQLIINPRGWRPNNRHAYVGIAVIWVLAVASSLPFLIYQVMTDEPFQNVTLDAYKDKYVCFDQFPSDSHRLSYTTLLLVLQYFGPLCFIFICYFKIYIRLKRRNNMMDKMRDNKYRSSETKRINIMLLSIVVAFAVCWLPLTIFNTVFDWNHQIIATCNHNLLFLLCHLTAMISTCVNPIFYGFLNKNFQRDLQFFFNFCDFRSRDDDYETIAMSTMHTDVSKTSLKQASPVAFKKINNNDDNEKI

Chain of Mitogen-activated protein kinase 1 (P28482 whole entry): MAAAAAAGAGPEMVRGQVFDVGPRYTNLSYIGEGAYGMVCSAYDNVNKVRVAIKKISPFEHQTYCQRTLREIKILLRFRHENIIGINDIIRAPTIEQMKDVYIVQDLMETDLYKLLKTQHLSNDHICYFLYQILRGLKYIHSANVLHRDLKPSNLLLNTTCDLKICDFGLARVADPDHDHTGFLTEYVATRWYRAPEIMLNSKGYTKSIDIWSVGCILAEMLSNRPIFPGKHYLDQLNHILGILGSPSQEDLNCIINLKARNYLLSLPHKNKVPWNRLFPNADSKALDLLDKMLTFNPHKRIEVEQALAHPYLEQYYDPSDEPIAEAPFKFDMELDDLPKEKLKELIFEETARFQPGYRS
Chain of Beta-2 adrenergic receptor (P07550 whole entry): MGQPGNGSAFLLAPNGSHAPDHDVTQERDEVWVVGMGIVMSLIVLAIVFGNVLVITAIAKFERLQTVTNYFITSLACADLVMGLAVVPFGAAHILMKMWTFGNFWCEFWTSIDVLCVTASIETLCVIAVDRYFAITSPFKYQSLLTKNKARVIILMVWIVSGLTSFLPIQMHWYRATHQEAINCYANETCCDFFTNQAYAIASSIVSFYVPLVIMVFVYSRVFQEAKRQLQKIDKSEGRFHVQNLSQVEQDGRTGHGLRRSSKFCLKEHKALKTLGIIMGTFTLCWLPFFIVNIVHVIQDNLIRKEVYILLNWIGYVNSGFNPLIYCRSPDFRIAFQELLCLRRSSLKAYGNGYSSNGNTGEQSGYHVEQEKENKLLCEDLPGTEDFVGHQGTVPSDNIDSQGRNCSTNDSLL
Chain of C-C chemokine receptor type 5 (P51681 whole entry): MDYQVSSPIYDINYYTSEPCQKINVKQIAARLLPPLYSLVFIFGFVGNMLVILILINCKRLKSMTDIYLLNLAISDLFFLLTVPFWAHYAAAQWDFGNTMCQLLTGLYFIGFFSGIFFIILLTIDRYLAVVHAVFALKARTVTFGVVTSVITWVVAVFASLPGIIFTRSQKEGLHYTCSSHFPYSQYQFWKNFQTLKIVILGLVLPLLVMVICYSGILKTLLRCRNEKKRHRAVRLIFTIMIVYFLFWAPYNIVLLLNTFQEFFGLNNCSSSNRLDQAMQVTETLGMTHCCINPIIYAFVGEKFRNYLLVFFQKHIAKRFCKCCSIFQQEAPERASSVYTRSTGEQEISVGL

| SMILES | IC50 [1] | IC50 [2] | IC50 (D(4) dopamine receptor; cho-k1) | IC50 [3] | IC50 [4] | IC50 (Caspase-1) | IC50 ([5]; cho) | IC50 [6] | IC50 ([5]; read-out: IC50) [µM] | Ki ([5]; read-out: Ki) [µM] | IC50 (D(4) dopamine receptor; read-out: IC50) [µM] | Ki (D(4) dopamine receptor; read-out: Ki) [µM] |
| --- | --- | --- | --- | --- | --- | --- | --- | --- | --- | --- | --- | --- |
| CCCCC(=O)N(Cc1ccc(-c2ccccc2-c2nnn[nH]2)cc1)[C@H](C(=O)O)C(C)C | Not Active | Not Active | Not Active | Not Active | Not Active | Not Active | Not Active | Not Active | – | – | – | – |
| O=C(O)COc1ccc(C(=O)c2cccs2)c(Cl)c1Cl | Not Active | Not Active | Not Active | Not Active | Not Active | Not Active | Not Active | Not Active | – | – | – | – |
| CN1[C@@H]2CC[C@H]1C[C@@H](OC(c1ccccc1)c1ccccc1)C2 [BENZTROPINE] | Not Active | Not Active | Not Active | Not Active | Not Active | Not Active | Not Active | Not Active | – | – | – | – |
| C[C@@](Cc1ccc(O)c(O)c1)(NN)C(=O)O.O [CARBIDOPA] | Not Active | Not Active | Not Active | Not Active | Not Active | Not Active | Not Active | Not Active | – | – | – | – |
| CN1CCN(C2=Nc3cc(Cl)ccc3Nc3ccccc32)CC1 [CLOZAPINE] | Not Active | Not Active | – | Not Active | Not Active | Not Active | Not Active | Not Active | – | – | – | – |
| CC(C)NC[C@@H](O)COc1cccc2ccccc12 [DEXPROPRANOLOL] | Not Active | Not Active | Not Active | Not Active | Not Active | Not Active | – | Not Active | – | – | – | – |
| CC(C)NC[C@H](O)COc1cccc2ccccc12 [LEVOPROPRANOLOL] | Not Active | Not Active | Not Active | Not Active | Not Active | Not Active | – | Not Active | – | – | – | – |
| O=C(O)CCCCC1CCSS1 (stereo not drawn) [LIPOIC ACID, ALPHA] | Not Active | Not Active | Not Active | Not Active | Not Active | Not Active | Not Active | Not Active | – | – | – | – |
| CN(C)C(=O)C(CCN1CCC(O)(c2ccc(Cl)cc2)CC1)(c1ccccc1)c1ccccc1 [LOPERAMIDE] | Not Active | Not Active | Not Active | Not Active | Not Active | Not Active | – | Not Active | 3.01 | 2.07 | – | – |
| Clc1ccc(COC(Cn2ccnc2)c2ccc(Cl)cc2Cl)c(Cl)c1 (stereo not given) [MICONAZOLE] | Not Active | Not Active | – | Not Active | Not Active | Not Active | Not Active | Not Active | – | – | 15.3 | 5.35 |
| Oc1ccc2c3c1O[C@H]1[C@@H](O)CC[C@@]4(O)[C@@H](C2)N(CC2CCC2)CC[C@]314 [NALBUPHINE] | Not Active | Not Active | Not Active | Not Active | Not Active | Not Active | Not Active | Not Active | – | – | – | – |
| C[C@]12C=CC(=O)C=C1CC[C@@H]1[C@@H]2C(=O)C[C@@]2(C)[C@H]1CC[C@]2(O)C(=O)CO [PREDNISONE] | Not Active | Not Active | Not Active | Not Active | Not Active | Not Active | Not Active | Not Active | – | – | – | – |
